Assay results published in patent publication US4098823A, “Monospiroalkyl derivatives of prostaglandins” (Miles Laboratories, Inc., priority 1977, dated 1978).
Entries after “also recorded” stand apart in the source; their conditions may differ.

Assays:
[1] = system: Human Platelet Aggregation; conditions: in vitro; cited from earlier work
[2] = system: smooth muscle of the vas deferens; conditions: mammalian male reproductive system; cited from earlier work
[3] = system: steroidogenesis in the adrenal glands; conditions: hypophysectomized rats; cited from earlier work
[4] = system: adrenergic nerve endings; conditions: guinea pig; cited from earlier work
[5] = system: Blood Pressure and Heart Rate; assay: Effects on Blood Pressure and Heart Rate in the Anesthetized Cat; type: in vivo; conditions: intravenous, 0.01 to 10.0 mcg/kg, scored only on hypotension
Summary of the method: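 Cats of either sex anesthetized with pentobarbital sodium (35 mg/kg i.v.) plus barbital sodium (100 mg/kg i.v.), femoral arterial pressure and ECG-driven heart rate recorded. Compound given i.v. at one-log increasing doses, 0.01–10.0 mcg/kg, every 10 min. ED50 mmHg (dose lowering blood pressure by 50 mmHg) derived graphically from hypotension.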

[6] = system: Guinea Pig Trachea; assay: Effects on the Guinea Pig Trachea in Vitro; type: cell-based; conditions: 0.01 to 10.0 mcg/ml, versus PGE1 0.1 mcg/ml, R = relaxation, C = contraction
Description: A male guinea pig weighing 200-500 g was killed by a blow on the head. A 20 mm length of the trachea was dissected from the animal, transferred to a petri dish containing Krebs' solution (aerated with 95% O2 and 5% CO2 at 37° C), and cut longitudinally opposite the tracheal muscle. The tissue was then cut transversely three quarters of the distance across, a second cut in the opposite direction (again three quarters of the distance across the tissue) was made and the procedure was continued for the whole tissue. The ends of the trachea were pulled to form a zig-zag shaped strip. The tracheal strip used in the experiment was approximately 30 mm when extended under 0.25-0.5 g load in the tissue bath. Cotton thread was tied to one end of the tissue, and linen thread to the other. It was attached via the linen thread to a glass hook in a 5 ml isolated tissue bath containing Krebs' solution (37° C, aerated with a mixture of 95 % O2 and 5% CO2). […]
A test compound was then added to the same two strips at bath concentrations of 0.01, 0.1, 1.0, and 10.0 mcg/ml and the effects of the compound were recorded. […] The mean of the effects of the test compound on the two strips was then calculated for each concentration, and, based on the resulting values, an activity value was assigned as follows: […]

[7] = system: rat stomach fundus; assay: Cascade Assay, stomach (smooth muscle stimulant effect); type: cell-based; conditions: superfused, 50% of maximum (PGE1)
Summary of the method: (§1)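 Rabbit aortic strip (4 g tension), rat stomach fundus, rat colon and chick rectum (1 g) in cascade, superfused at 10 ml/min with 37° C Krebs containing cholinergic, adrenergic, serotonin and histamine blockers. Doses of 0.001–100,000 ng dripped on at 10–20 min intervals; maximal tension rise gave graphical ED50 per tissue.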

[8] = system: chick rectum; assay: Cascade Assay, rectum (smooth muscle stimulant effect); type: cell-based; conditions: superfused, 50% of maximum (PGE1)
Summary of the method: as §1

[9] = system: rabbit aortic strip; assay: Cascade Assay, aorta (smooth muscle stimulant effect); type: cell-based; conditions: superfused, 50% of maximum (PGA2)
Summary of the method: as §1

[10] = system: rat colon; assay: Cascade Assay, colon (smooth muscle stimulant effect); type: cell-based; conditions: superfused, 50% of maximum (PGF2α)
Summary of the method: as §1

[11] = system: Gastric Secretion; assay: Effects on Gastric Secretion in the Rat; type: in vivo; conditions: pylorus-ligated rat, subcutaneous, 2 x 1.5 mg/kg (total 3.0 mg/kg), 4 hours
Summary of the method: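 Rats (150-200 g, groups of six) fasted 48 h, pylorus ligated under ether. Compounds given s.c. in phosphate buffer pH 7.38 at 1.5 mg/kg immediately post-surgery and 2 h later (total 3.0 mg/kg). At 4 h, gastric volume and total acid (titration with 0.1 N NaOH, mEq) compared with vehicle controls by t-test.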

[12] = system: Rat Uterus; assay: Effects on the Rat Uterus in Vitro; type: cell-based; conditions: Rattus norvegicus; in vitro, 29° C; response 50% that of carbachol; read-out: Test F Rat Uterus, Activity Value (ED50)
Summary of the method: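 Uterine segments came from rats (140–160 g) given 1 mg/kg diethylstilbestrol s.c. 18 h earlier. Tissue was held isometrically at 1 g tension in de Jalon solution at 29 °C, gassed with 95% O2/5% CO2. Compound was tested at 0.001–10 mcg/ml in log steps, every 10 min with washes, and ED50 was derived graphically as 50% of the second carbachol (1 mcg/ml) response.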

[13] = system: female reproductive system; conditions: in vivo; cited from earlier work
[14] = system: motor pathways in the central nervous system; conditions: cited from earlier work

Question: For `CCCCC[C@H](O)/C=C/[C@H]1[C@H](O)CC(=O)[C@@H]1CCCCCCC(=O)O` [PGE1, prostaglandin E1], which “inhibition of aggregation of human platelets, in words (natural prostaglandin)” value [1] is on record?
Answer: displays a similar activity

Question: And the “contraction of smooth muscle of the vas deferens” value [2]?
Answer: contracts the smooth muscle of the vas deferens

Question: What about the “steroidogenesis in the adrenal glands” value [3] of the same compound?
Answer: stimulate steroidogenesis in the adrenal glands

Question: What about the “transmitter release from adrenergic nerve endings” value [4] of the same compound?
Answer: inhibit transmitter release from adrenergic nerve endings

Question: With `COC(=O)CCCCCC[C@H]1C(=O)C=C[C@H]1/C=C/[C@@H](O)C1CC2(CCC2)C1` [TR-4126, Methyl 7-{5-oxo-2R-[3S-hydroxy-3-(spiro[3.3]hept-2-yl)-1E-propenyl]cyclopent-3-en-1R-yl}heptanoate] as the compound, how does the “Test D Activity Value (ED50 mmHg, decrease in blood pressure)” value [5] read?
Answer: 0 (>10.0)

Question: What about the “Test G Guinea Pig Trachea, Activity Value” [6] of the same compound?
Answer: Cl

Question: And the “Test E Cascade Assay, Stomach, Activity Value (ED50)” value [7]?
Answer: 0 (>10000)

Question: What about the “Test E Cascade Assay, Rectum, Activity Value (ED50)” value [8] of the same compound?
Answer: 0 (>10000)

Question: And the “Test E Cascade Assay, Aorta, Activity Value (ED50)” value [9]?
Answer: 0 (>10000)

Question: Which “Test E Cascade Assay, Colon, Activity Value (ED50)” value [10] does the source give for `O=C1C[C@@H](O)[C@H](/C=C/[C@@H](O)C2CC3(CCC3)C2)[C@H]1CCCCCCCO` [TR-4714, 7-{3R-hydroxy-5-oxo-2R-[3S-hydroxy-3-(spiro[3.3]hept-2-yl)-1E-propenyl]cyclopent-1R-yl}heptan-1-ol] here?
Answer: 0 (>10000)

Question: And the “Test B Activity Value (% decrease in acidity, inhibition of gastric secretion)” value [11]?
Answer: 0 (<26)

Question: And the EC50 [12]?
Answer: > 10 µg/mL

Question: What about the “Test G Guinea Pig Trachea, Activity Value” [6] of the same compound?
Answer: Cl

Question: What about the “Test E Cascade Assay, Stomach, Activity Value (ED50)” value [7] of the same compound?
Answer: 0 (>10000)

Question: And the “Test E Cascade Assay, Rectum, Activity Value (ED50)” value [8]?
Answer: 0 (>10000)

Question: What about the “Test E Cascade Assay, Aorta, Activity Value (ED50)” value [9] of the same compound?
Answer: 0 (>10000)

Question: With `CCCCC[C@H](O)/C=C/[C@@H]1[C@@H](C/C=C\CCCC(=O)O)[C@@H](O)C[C@H]1O` [PGF2α] as the compound, how does the “effect in the female reproductive system (fertility, labor, abortion)” value [13] read?
Answer: contragestational effects; also recorded: induces spontaneous abortions in early pregnancy

Question: And the “transmission in motor pathways” value [14]?
Answer: facilitates transmission in motor pathways
